The values below come from patent publication US20090143361A1, “Pyrido[3,2-E]Pyrazines, Process For Preparing The Same, And Their Use As Inhibitors Of Phosphodiesterase 10” (ELBION GMBH, priority 2007, published 2009).

The first assay addresses PDE10 from pig striatum (Sus scrofa, UniProt A0A287B941). As to the kind of experiment: Inhibition of PDE10 from pig striatum ([3H]-cAMP SPA). It counts as biochemical. Conditions: Table 7; read-out: PDE10 pig IC50. As to the method:
Phosphodiesterase isoenzyme 10 (PDE10) activity was determined in preparations of human recombinant PDE10A and PDE10 from pig striatum, respectively.
Striatum from male hybrid pigs (150 kg) were collected and frozen at −70° C.
At the day of preparation 0.5 g striatum was homogenised in 10 ml 50 mM Tris/Mg-buffer at 4° C. and centrifuged for one hour at 100000 g. The supernatant was removed and the pellet was resuspended in the same buffer, but containing 1% Triton and incubated for 45 min at 4° C. The membrane fraction was applied onto a 5 ml Hi Trap™ QHP column at the Akta-FPLC. After washing the column the bound PDE protein was eluted with an increasing sodium chloride gradient (O mM-500 mM sodium chloride) in 50 mM Tris/Mg-buffer at 4° C. in the presence of 1% Triton. […] The fractions with PDE10-activity were pooled and frozen in aliquots until use at −20° C.
PDE10 activity was determined in a one step procedure in microtiterplates. […] Nonspecific activity was tested without the enzyme. The reaction was initiated by addition of the substrate solution and was carried out at 37° C. for 30 minutes. Enzymatic activity was stopped by addition of 25 μl YSi-SPA-beads (Amersham-Pharmacia). One hour later the mixture was measured in a liquid scintillation counter for microtiterplates (Microbeta Trilux). To pipette the incubation mixture a robot Biomek (Fa. Beckman) is used. […] For determination of IC50 values the Hill-plot, 2-parameter-model, was used.
The phosphodiesterase isoenzyme 10 (PDE10) activity was determined in preparations of rat, pig and guinea pig striatum respectively. Striatum from male Wistar rats (180-200 g), male hybrid pigs (150 kg) and male guinea pigs (CRL (HA), 500 g) respectively were collected and frozen at −70° C.
At the day of preparation 0.5 g striatum was homogenized in 10 ml 50 mM Tris/Mg-buffer at 4° C. and centrifuged for one hour at 100000 g. The supernatant is called the cytosolic fraction and was removed and stored on ice. The pellet was resuspended in the same buffer, but containing 1% Triton and incubated for 45 min at 4° C. Both fractions were independently applied onto a 5 ml Hi Trap™ QHP column at the Akta-FPLC. After washing the columns the bound PDE protein was eluted with an increasing sodium chloride gradient (0 mM-500 mM sodium chloride) in 50 mM Tris/Mg-buffer at 4° C. for the cytosolic fraction and in the presence of 1% Triton for the membrane fraction. […] The fractions with PDE10-activity were pooled and frozen in aliquots until use at −20° C.
PDE10 activity was determined in a one step procedure in microtiterplates. […] Nonspecific activity was tested without the enzyme. The reaction was initiated by addition of the substrate solution and was carried out at 37° C. for 30 minutes. Enzymatic activity was stopped by addition of 25 μl YSi-SPA beads (Amersham-Pharmacia). One hour later the mixture was measured in a liquid scintillation counter for microtiterplates (Microbeta Trilux). To pipette the incubation mixture a robot Biomek (Fa. Beckman) is used. […] For determination of IC50 values the Hill-plot, 2-parameter-model, was used.
Take `Cc1nc(CCC(F)(F)F)n2c1c(Cl)nc1ccc(OCC(F)(F)F)nc12` [Example 1, 6-Chloro-7-methyl-2-(2,2,2-trifluoroethoxy)-9-(3,3,3-trifluoropropyl)imidazo[1,5-a]pyrido[3,2-e]pyrazine]: the IC50 was in the range of 10 to 100 nM.

Regarding `CCCc1nc(C)c2c(Cl)nc3ccc(OCC)nc3n12` [Example 2, 6-Chloro-2-ethoxy-7-methyl-9-propylimidazo[1,5-a]pyrido[3,2-e]pyrazine], the IC50 was < 10 nM.

As for `CCCc1nc(C)c2c(C)nc3ccc(OCC)nc3n12` [Example 3, 2-Ethoxy-6,7-dimethyl-9-propylimidazo[1,5-a]pyrido[3,2-e]pyrazine], the IC50 fell in the range of 10 to 100 nM.

For `CCOc1ccc2nc(C)c3c(C)nc(-c4ccccc4Cl)n3c2n1` [Example 4, 9-(2-Chlorophenyl)-2-ethoxy-6,7-dimethylimidazo[1,5-a]pyrido[3,2-e]pyrazine], the IC50 is < 10 nM.

For the compound `COc1ccc2nc(C)c3c(C)nc(-c4cccc(F)c4)n3c2n1` [Example 5, 9-(3-Fluorophenyl)-2-methoxy-6,7-dimethylimidazo[1,5-a]pyrido[3,2-e]pyrazine], the concentration for half-maximal inhibition (IC50) was in the range of 10 to 100 nM.

With `COc1ccc2nc(C)c3c(C)nc(-c4cc(Cl)cc(Cl)c4)n3c2n1` [Example 6, 9-(3,5-Dichlorophenyl)-2-methoxy-6,7-dimethylimidazo[1,5-a]pyrido[3,2-e]pyrazine], the half-maximal inhibitory concentration (IC50) was 10 to 100 nM.

Regarding `COc1ccc2nc(C)c3c(C)nc(-c4ccc(Cl)c(Cl)c4)n3c2n1` [Example 7, 9-(3,4-Dichlorophenyl)-2-methoxy-6,7-dimethylimidazo[1,5-a]pyrido[3,2-e]pyrazine], the IC50 lay in the range of 10 to 100 nM.

Consider `COc1ccc2nc(C)c3c(C)nc(-c4ccc(F)cc4F)n3c2n1` [Example 8, 9-(2,4-Difluorophenyl)-2-methoxy-6,7-dimethylimidazo[1,5-a]pyrido[3,2-e]pyrazine], for which the IC50 fell in the range of 10 to 100 nM.

In the case of `COc1ccc2nc(C)c3c(C)nc(-c4ccc(F)nc4)n3c2n1` [Example 9, 9-(6-Fluoropyridin-3-yl)-2-methoxy-6,7-dimethylimidazo[1,5-a]pyrido[3,2-e]pyrazine], the IC50 is 10 to 100 nM.

Take `COc1ccc2nc(C)c3c(C)nc(-c4cccnc4)n3c2n1` [Example 10, 2-Methoxy-6,7-dimethyl-9-pyridin-3-ylimidazo[1,5-a]pyrido[3,2-e]pyrazine]: the half-inhibitory concentration (IC50) lay within 10 to 100 nM.

As for `COc1ccc2nc(C)c3c(C)nc(-c4ccncc4)n3c2n1` [Example 11, 2-Methoxy-6,7-dimethyl-9-pyridin-4-ylimidazo[1,5-a]pyrido[3,2-e]pyrazine], the half-inhibitory concentration (IC50) is 10 to 100 nM.

For `COc1ccc2nc(C)c3c(C)nc(-c4ccc(C)cc4Cl)n3c2n1` [Example 12, 9-(2-Chloro-4-methylphenyl)-2-methoxy-6,7-dimethylimidazo[1,5-a]pyrido[3,2-e]pyrazine], the IC50 was < 10 nM.

Turning to `COc1ccc2nc(C)c3c(C)nc(-c4ccc(Cl)cc4C)n3c2n1` [Example 13, 9-(4-Chloro-2-methylphenyl)-2-methoxy-6,7-dimethylimidazo[1,5-a]pyrido[3,2-e]pyrazine], the IC50 was < 10 nM.

Consider `COc1ccc2nc(C)c3c(C)nc(-c4ccc(C)cc4F)n3c2n1` [Example 14, 9-(2-Fluoro-4-methylphenyl)-2-methoxy-6,7-dimethylimidazo[1,5-a]pyrido[3,2-e]pyrazine], for which the half-maximal inhibitory concentration (IC50) was < 10 nM.

Consider `COc1ccc2nc(C)c3c(C)nc(-c4cccc(OC)c4F)n3c2n1` [Example 15, 9-(2-Fluoro-3-methoxyphenyl)-2-methoxy-6,7-dimethylimidazo[1,5-a]pyrido[3,2-e]pyrazine], for which the IC50 is 10 to 100 nM.

As to `COc1ccc(-c2nc(C)c3c(C)nc4ccc(OC)nc4n23)c(Cl)c1` [Example 18, 9-(2-Chloro-4-methoxyphenyl)-2-methoxy-6,7-dimethylimidazo[1,5-a]pyrido[3,2-e]pyrazine], the IC50 is < 10 nM.

For the compound `COc1ccc2nc(C)c3c(C)nc(-c4cc(F)ccc4Cl)n3c2n1` [Example 22, 9-(2-Chloro-5-fluorophenyl)-2-methoxy-6,7-dimethylimidazo[1,5-a]pyrido[3,2-e]pyrazine], the concentration for half-maximal inhibition (IC50) was < 10 nM.

Turning to `COc1ccc2nc(C)c3c(C)nc(-c4cncnc4)n3c2n1` [Example 27, 2-Methoxy-6,7-dimethyl-9-pyrimidin-5-ylimidazo[1,5-a]pyrido[3,2-e]pyrazine], the IC50 was < 10 nM.

Take `COc1ccc(-c2nc(C)c3c(C)nc4ccc(OC)nc4n23)cn1` [Example 28, 2-Methoxy-9-(6-methoxypyridin-3-yl)-6,7-dimethylimidazo[1,5-a]pyrido[3,2-e]pyrazine]: the IC50 was 10 to 100 nM.

For `COc1ccc2nc(C)c3c(C)nc(-c4cccnc4OC)n3c2n1` [Example 29, 2-Methoxy-9-(2-methoxypyridin-3-yl)-6,7-dimethylimidazo[1,5-a]pyrido[3,2-e]pyrazine], the IC50 lay within 10 to 100 nM.

Consider `COc1ccc2nc(C)c3c(C)nc(-c4cnccc4OC)n3c2n1` [Example 30, 2-Methoxy-9-(4-methoxypyridin-3-yl)-6,7-dimethylimidazo[1,5-a]pyrido[3,2-e]pyrazine], for which the 50% inhibitory concentration (IC50) lay within 10 to 100 nM.

The assay is the same for the next values; noted with them: Table 8; read-out: PDE10 pig IC50.
In the case of `COc1ccc2nc(Cl)c3c(C)nc(CCC(F)(F)F)n3c2n1` [Example 41, 6-Chloro-2-methoxy-7-methyl-9-(3,3,3-trifluoropropyl)imidazo[1,5-a]pyrido[3,2-e]pyrazine], the IC50 was in the range of 10 to 100 nM.

Regarding `COc1ccc2nc(C)c3c(C)nc(CCC(F)(F)F)n3c2n1` [Example 42, 2-Methoxy-6,7-dimethyl-9-(3,3,3-trifluoropropyl)imidazo[1,5-a]pyrido[3,2-e]pyrazine], the IC50 lay in the range of 10 to 100 nM.

Turning to `COc1ccc2nc(N3CCC3)c3c(C)nc(CCC(F)(F)F)n3c2n1` [Example 43, 6-Azetidin-1-yl-2-methoxy-7-methyl-9-(3,3,3-trifluoropropyl)imidazo[1,5-a]pyrido[3,2-e]pyrazine], the IC50 is > 100 nM.

`COc1ccc2nc(N)c3c(C)nc(CCC(F)(F)F)n3c2n1` [Example 44, 2-Methoxy-7-methyl-9-(3,3,3-trifluoropropyl)imidazo[1,5-a]pyrido[3,2-e]pyrazin-6-amine]: the half-maximal inhibitory concentration (IC50) is 10 to 100 nM.

As for `COc1ccc2nc(NS(C)(=O)=O)c3c(C)nc(CCC(F)(F)F)n3c2n1` [Example 45, N-[2-Methoxy-7-methyl-9-(3,3,3-trifluoropropyl)imidazo[1,5-a]pyrido[3,2-e]pyrazin-6-yl]methanesulfonamide], the IC50 is 10 to 100 nM.

Regarding `COc1ccc2nc(C)c3c(C)nc(-c4cc(Cl)ccc4Cl)n3c2n1` [Example 47, 9-(2,5-Dichlorophenyl)-2-methoxy-6,7-dimethylimidazo[1,5-a]pyrido[3,2-e]pyrazine], the IC50 is < 10 nM.

For `COc1ccc2nc(C)c3c(C)nc(-c4cccc(Cl)c4)n3c2n1` [Example 48, 9-(3-Chlorophenyl)-2-methoxy-6,7-dimethylimidazo[1,5-a]pyrido[3,2-e]pyrazine], the IC50 is < 10 nM.

As to `COc1ccc2nc(C)c3c(C)nc(-c4ccccc4OC)n3c2n1` [Example 52, 2-Methoxy-9-(2-methoxyphenyl)-6,7-dimethylimidazo[1,5-a]pyrido[3,2-e]pyrazine], the IC50 is 10 to 100 nM.

Take `COc1ccc2nc(C)c3c(C)nc(-c4ccccc4OC(C)C)n3c2n1` [Example 54, 9-(2-Isopropoxyphenyl)-2-methoxy-6,7-dimethylimidazo[1,5-a]pyrido[3,2-e]pyrazine]: the IC50 is > 100 nM.

For the compound `COc1ccc(-c2nc(C)c3c(C)nc4ccc(OC)nc4n23)cc1` [Example 55, 2-Methoxy-9-(4-methoxyphenyl)-6,7-dimethylimidazo[1,5-a]pyrido[3,2-e]pyrazine], the IC50 fell in the range of 10 to 100 nM.

As for `COc1ccc2nc(C)c3c(C)nc(-c4ccsc4)n3c2n1` [Example 56, 2-Methoxy-6,7-dimethyl-9-(3-thienyl)imidazo[1,5-a]pyrido[3,2-e]pyrazine], the IC50 was in the range of 10 to 100 nM.

Regarding `COc1ccc2nc(C)c3c(C)nc(-c4ccoc4)n3c2n1` [Example 58, 9-(3-Furyl)-2-methoxy-6,7-dimethylimidazo[1,5-a]pyrido[3,2-e]pyrazine], the IC50 is 10 to 100 nM.
